Results: article PMC11497058, “Ginsenoside Rg3 Restores Mitochondrial Cardiolipin Homeostasis via GRB2 to Prevent Parkinson's Disease” (Advanced Science, 2024)
Counter-ions that a name gives are not always drawn.

target: GRB2 (Homo sapiens, UniProt P62993); assay: biochemical; set-up: Surface plasmon resonance screen of compounds binding to GRB2, KD
Description: To further validate the universal impact of TRKA‐GRB2 axis‐targeted molecular in enhancing CL expression and ameliorating PD, we employed Surface Plasmon Resonance (SPR) technology^[ [58] ^] to screen compounds that bind to GRB2 (Figure 8a). Subsequently, we identified 11 compounds with a KD value at the […] (Table S9, Supporting Information). The viability of SH‐SY5Y cells exposed to mpp+ or 6‐OHDA increased upon treatment with TDF and [compound left out] (Figure S13a and b, Supporting Information). TDF acts as a prodrug of tenofovir, a nucleotide reverse transcriptase inhibitor.^[ [59] ^] On the other hand, [compound left out] is specially formulated for ophthalmological steroid‐based treatments.^[ [60] ^] Considering its oral administration capability, we selected TDF for further research (Figure S13c and d, Supporting Information). TDF facilitated the clearance of overexpressed A53T‐αSyn in SH‐SY5Y cells (Figure S13e and f, Supporting Information) and promoted the interaction between GRB2 and TRKA without affecting the interaction between GRB2 and EGFR in these cells (Figure 8b–d). Treatment with TDF enhanced CRLS1 expression and restored the decreased mitochondrial CL levels caused by A53T‐αSyn in SH‐SY5Y cells. However, knockdown of GRB2 or TRKA in SH‐SY5Y cells attenuated TDF‐induced effect (Figure 8e–g). Moreover, TDF increased TRKA phosphorylation, ERK phosphorylation, and CRLS1 expression, while GW441756 […] these changes (Figure S13g–j, Supporting Information). When SCH772984 was employed, it blocked the ability of TDF to increase ERK phosphorylation and CRLS1 expression (Figure S13k–m, Supporting Information). The impairment of exercise ability was alleviated following TDF (80 mg kg^−1) treatment, resulting in an increase in the distance travelled by A53T‐αSyn‐treated mice (Figure 8h,i). […] Western blotting was performed to evaluate the expression of TRKA and EGFR in cell lysates immunoprecipitated with an anti‐GRB2 antibody (b). Quantification of TRKA levels (c) and EGFR levels (d). e,f) Representative western blot images of CRLS1, GRB2, TRKA in SH‐SY5Y cells treated with TDF (10 µM) or DMSO (0.1%) for 24 h after transfection with Scramble, GRB2 or TRKA siRNAs for 24 h. Quantification of CRLS1 levels (f). g) SH‐SY5Y cells were treated with TDF (10 µM) or DMSO (0.1%) for 24 h after transfection with Scramble, GRB2 or TRKA siRNAs for 24 h. Quantification of mitochondrial CL in SH‐SY5Y cells. Three independent experiments per condition were performed in (b–g). h) Movement track in the open field test. i) Total distance travelled in the open field. j) Time required to descend the pole. k) Time required to fall off the rotarod. (n = 10 mice per group in (h–k). l) Immunohistochemical staining of TH^+ neurons (scale bar = 100 µm). m) Quantification of TH^+ neurons. (n = 3 mice per group in l, m). Data are normalised to those of the DMSO group (c,d) and the Scramble_DMSO group (f). Mean ± standard error of the mean is presented. *p < 0.05, **p < 0.01, ***p < 0.001, ****p < 0.0001, ns, not significant. Student's two‐tailed unpaired t‐test (c,d), two‐way ANOVA with Sidak's multiple comparisons test (f,g,i,j,k and m). Source data are provided in the Source Data file.

Sequence of GRB2 (P62993 whole entry): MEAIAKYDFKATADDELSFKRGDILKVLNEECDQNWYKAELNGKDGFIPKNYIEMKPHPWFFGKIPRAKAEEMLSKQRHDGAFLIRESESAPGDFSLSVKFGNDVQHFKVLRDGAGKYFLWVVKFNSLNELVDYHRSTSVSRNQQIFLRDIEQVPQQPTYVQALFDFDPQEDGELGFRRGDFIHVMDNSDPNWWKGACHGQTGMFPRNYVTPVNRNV

CC(C)N(CCNC(=O)CN1CCCC1=O)C(C)C [Pramiracetam] and CC(C)OC(=O)OCOP(=O)(CO[C@H](C)Cn1cnc2c(N)ncnc21)OCOC(=O)OC(C)C [TDF, Tenofovir Disoproxil Fumarate] are within 1.5-fold of each other in Kd: 99.6 nM for the first, 74.3 nM for the second.

First: CCCC(=O)O[C@]1(C(=O)CCl)[C@@H](C)C[C@H]2[C@@H]3CCC4=CC(=O)C=C[C@]4(C)[C@@]3(F)C(=O)C[C@@]21C [Clobetasone butyrate]
Second: NC(=O)N1c2ccccc2CC(=O)c2ccccc21 [Oxcarbazepine]
The Kd of the first is 2.4-fold lower: 100 nM for the first, 241 nM for the second.

COC(c1ccccc1)(c1ccccc1)[C@H](Oc1nc(C)cc(C)n1)C(=O)O [Ambrisentan] and O=C1c2ccccc2-c2n[nH]c3cccc1c23 [SP600125] are within 1.5-fold of each other in Kd: 192 nM for the first, 262 nM for the second.

First: C/C(=C\CO)CCC[C@H](C)CCC[C@H](C)CCCC(C)C [Phytol]
Second: CC(N)C12CC3CC(CC(C3)C1)C2 (centres unmarked) [Rimantadine]
The Kd of the first is 9.2-fold higher: 1470 nM for the first, 160 nM for the second. The second binds more tightly here.

Compared with O=C(O)c1ccc2nc(-c3cc(Cl)cc(Cl)c3)oc2c1 [tafamidis], Nc1nc(=O)n([C@@H]2CS[C@H](CO)O2)cc1F [Emtricitabine] is 250-fold lower in Kd: 3730 nM for the first, 15.2 nM for the second. The second binds more tightly here.

target: T1, Growth Factor Receptor-Bound Protein 2 (GRB2) (Homo sapiens, UniProt P62993); assay: bio-layer interferometry (ForteBio Octet); supported by thermal shift assay (CETSA) and LiP-SMap; assay type: binding
T1 construct: Recombinant His-tagged GRB2 (pET-28a, E. coli)
T1 sequence (P62993 whole entry): as above

Compound CC(C)=CCC[C@](C)(O)[C@H]1CC[C@]2(C)[C@@H]1[C@H](O)C[C@@H]1[C@@]3(C)CC[C@H](O[C@@H]4O[C@H](CO)[C@@H](O)[C@H](O)[C@H]4O[C@@H]4O[C@H](CO)[C@@H](O)[C@H](O)[C@H]4O)C(C)(C)[C@@H]3CC[C@]12C [Rg3, Ginsenoside Rg3] has a Kd of 869 nM.
